We go through three compounds from publication PMC5618426, “APETx4, a Novel Sea Anemone Toxin and a Modulator of the Cancer-Relevant Potassium Channel KV10.1” (Marine Drugs, 2017).

The subject of one data set is hERG. Particulars: cited from earlier work.
The next data set relates to KV10.1. Nature of the data set: KV10.1 inhibition by related toxins (unpublished data). In kind it is cell-based.
A further data set deals with ASIC3. The note with it: cited from earlier work.
The subject of another data set is KV2.1. The note with it: ref [46]; cited from earlier work. From the text: APETx1 is proposed to bind to the voltage sensor paddle of hERG. In particular, the negative charge of E518 is expected to form an electrostatic interaction with the toxin [44]. Several other kinds of gating modifier toxins also bind to the extracellular exposed part of the S3–S4 domain. More precisely by binding to a glutamic acid residue and several hydrophobic amino acid residues. An example of these toxins is Hanatoxin (HaTx1) from the tarantula Grammostola spatulata.

As for APETx2, the IC50 (commonly the concentration at which inhibition is half-maximal) with hERG is ~1200 nM; in the data set with ASIC3 it was ~63 nM. In addition, in the data set with KV10.1, the “effect on KV10.1” value is reported as “no effect on KV10.1”.

Regarding `COc1ccc(CCN2CCC(Nc3nc4ccccc4n3Cc3ccc(F)cc3)CC2)cc1` [astemizole], in the data set with hERG, the “block of hERG (KV11.1)” value is “block the cardiac human Eag-related gene (hERG, KV11.1)”.

With “HaTx1: toxin from the tarantula Grammostola spatulata (ECRYLFGGCKTTSDCCKHLGCKFRDKYCAWDFTFS; UniProt P56852 50-84, looked up)”, in the data set on KV2.1, the “gating modification of KV2.1” value is listed as “modifies the channel gating of KV2.1”.
